# Values joined by “and” are separate entries in the source; they are usually repeats but may differ in a detail not shown here. Equal entries are not always repeated. “Also recorded” adds a separate entry of the source.
# What was measured:
# [1] = BBR levels in TgCRND8 brain tissue by LC/MS after oral administration; format: in vivo, mouse; conditions: for concentration at 3 hr: TgCRND8, mouse, brain, po, 3 hr after p.o. administration, LC/MS
# Experimental: To determine how oral administration of BBR influences the concentration of BBR in the brain, liquid chromatography and mass spectrometry techniques (LC/MS) are used to analyze changes in BBR levels in the TgCRND8 brain tissue in a separate experiment. BBR levels in the brain are found to be 0.88±0.27 and 1.67±0.73 μM for low and high doses of BBR respectively after 3 hr p.o. administration.
# TgCRND8 mice [2] = assay: Morris water maze (visible platform, hidden platform, probe trials); format: in vivo, mouse
# TgCRND8 mice [3] = assay: Aβ plaque burden by 4G8 immunostaining in cortex and hippocampus; format: in vivo, mouse
# TgCRND8 mice [4] = assay: Morphometric analysis of Aβ plaque size subsets; format: in vivo, mouse
# TgCRND8 mice [5] = assay: Thioflavin S staining of fibrillar parenchymal and cerebrovascular (CAA) Aβ; format: in vivo, mouse; conditions: for reduction in ThioS-positive fibrillar Aβ: relative to untreated control TgCRND8
# TgCRND8 mice [6] = assay: Aβ1-40 and Aβ1-42 sandwich ELISA in SDS and formic acid brain extracts; format: in vivo, mouse
# TgCRND8 mice [7] = assay: Microgliosis (Iba-1 burden) and astrocytosis (GFAP burden) immunohistochemistry; format: in vivo, mouse
# TgCRND8 mice [8] = assay: Western blot of brain homogenates (APP processing, tau phosphorylation, Akt/GSK3); format: in vivo, mouse
# Aβ1-42 fibril formation [9] = target: T1, Aβ1-42 fibril formation (Homo sapiens, UniProt P05067); assay: Inhibition of Aβ1-42 fibril formation in vitro; format: biochemical
# Aβ1-42 fibril formation [10] = target: T1, Aβ1-42 fibril formation; conditions: BBR 20 μM, in vitro; cited from earlier work
# [11] = low dose BBR, SDS and FA fractions
# [12] = BBR-treated TgCRND8, dose not stated (discussion)
# [13] = BBR 25 and 100 mg/Kg/d vs vehicle
# [14] = BBR- vs vehicle-treated TgCRND8
# [15] = BBR-treated vs vehicle-treated TgCRND8, dose not stated
# T1 sequence (P05067 672-713 limits assumed): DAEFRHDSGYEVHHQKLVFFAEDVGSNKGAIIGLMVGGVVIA
smiles,measurement,setting,value
"COc1ccc2cc3[n+](cc2c1OC)CCc1cc2c(cc1-3)OCO2 [BBR, 5,6-dihydro-9,10-dimethoxybenzo[g]-1,3-benzodioxolo[5,6-a]quinolizinium]",concentration at 3 hr,"[1]; 25 mg/kg/d, low dose of BBR",880 ± 270 nM
same,concentration at 3 hr,"[1]; 100 mg/kg/d, high dose of BBR",1670 ± 730 nM
same,passage through the blood-brain barrier,"[1]; mouse, in vivo",readily passes through the blood-brain barrier
same,probe trial: time spent in the target quadrant,TgCRND8 mice [2]; 25 and 100 mg/kg/d vs vehicle-treated TgCRND8,highest duration; also recorded: prevent decrease in the time spent in the target quadrant
same,probe trial: spatial bias,"TgCRND8 mice [2]; BBR 25 mg/Kg, all probe trials",significantly increases their spatial bias
same,hidden platform path distance (swim path),TgCRND8 mice [2]; low and high doses of BBR (25 and 100 mg/kg/d) vs vehicle-treated TgCRND8,significantly reduced swim path; also recorded: reduced the path distance; also recorded: show a reduction in swimming distance
same,decrease in plaque burden compared with control animals (4G8),TgCRND8 mice [3]; 25 mg/Kg/d,60% and 61%
same,reduction in amyloid burden observed in this study,TgCRND8 mice [3]; range over BBR doses (discussion),43-63%
same,percentage reduction in large (>50) amyloid plaque subset,TgCRND8 mice [4]; 25 mg/Kg,60%
same,percentage reduction in medium (25-50 μm) amyloid plaque subset,TgCRND8 mice [4]; 25 mg/Kg,41%
same,percentage reduction in small sized (<25 μm) amyloid plaque subset,TgCRND8 mice [4]; 25 mg/Kg,35%
same,percentage reduction in total amyloid plaque number,TgCRND8 mice [4]; 25 mg/Kg,37%
same,reduction of amyloid plaque subsets,TgCRND8 mice [4]; 100 mg/Kg/d,21-28%
same,"ThioS-labeled blood vessels (CAA), cortical area covered",TgCRND8 mice [5]; 25 mg/Kg/d (vehicle 1.44±0.17%),0.70% ±0.11
same,reduction in ThioS-positive fibrillar Aβ,TgCRND8 mice [5]; 25 mg/kg/d,40%
same,"ThioS-labeled blood vessels (CAA), cortical area covered",TgCRND8 mice [5]; 100 mg/Kg/d (vehicle 1.44±0.17%),0.89%±0.02
same,reduction in ThioS-positive fibrillar Aβ,TgCRND8 mice [5]; 100 mg/kg/d,51%
same,"diminution of Aβ1-40, SDS-soluble fraction",TgCRND8 mice [6]; 25 mg/Kg/d,44%
same,"reduction of Aβ1-40, formic acid extractable fraction",TgCRND8 mice [6]; 25 mg/Kg/d,49%
same,"reduction of Aβ1-42, formic acid extractable fraction",TgCRND8 mice [6]; 25 mg/Kg/d,44%
same,"diminution of Aβ1-40, SDS-soluble fraction",TgCRND8 mice [6]; 100 mg/Kg/d,32%
same,"reduction of Aβ1-40, formic acid extractable fraction",TgCRND8 mice [6]; 100 mg/Kg/d,54%
same,"reduction of Aβ1-42, formic acid extractable fraction",TgCRND8 mice [6]; 100 mg/Kg/d,39%
same,"Aβ1-42, SDS-soluble fraction",TgCRND8 mice [6]; BBR treatments (25 and 100 mg/Kg/d),slight reduction
same,reduction of total extracted Aβ40,TgCRND8 mice [6]; [11],44-49%
same,reduction of total extracted Aβ42,TgCRND8 mice [6]; [11],22-43%
same,GFAP burden (astrocytosis) reduced to % relative to vehicle-treated,TgCRND8 mice [7]; 25 mg/Kg,54%
same,Iba-1 burden (microgliosis) reduced to % relative to vehicle-treated,TgCRND8 mice [7]; 25 mg/Kg/d,45%
same,GFAP burden (astrocytosis) reduced to % relative to vehicle-treated,TgCRND8 mice [7]; 100 mg/Kg,28%
same,Iba-1 burden (microgliosis) reduced to % relative to vehicle-treated,TgCRND8 mice [7]; 100 mg/Kg/d,27%
same,decrease in astrocytosis,TgCRND8 mice [7]; [12],54%
same,reduction in microgliosis,TgCRND8 mice [7]; [12],45%
same,CTF-α and β levels in brain homogenates,TgCRND8 mice [8]; 25 mg/Kg/day,significantly reduces
same,ADAM-10 level in brain homogenates,TgCRND8 mice [8]; [13],no significant difference; also recorded: no effect
same,BACE-1 level in brain homogenates,TgCRND8 mice [8]; [13],no effect; also recorded: no significant difference
same,full length APP level in brain homogenates,TgCRND8 mice [8]; [13],no effect; also recorded: no significant difference
same,total GSK3α/β and total Akt,TgCRND8 mice [8]; BBR treatment,unaltered
same,IDE level in brain homogenates,TgCRND8 mice [8]; BBR vs vehicle,no significant difference; also recorded: does not affect
same,neprilysin level in brain homogenates,TgCRND8 mice [8]; BBR vs vehicle,no significant difference; also recorded: does not affect
same,p-Cdk5 (Y15) level,TgCRND8 mice [8]; [14],no significant differences
same,p-JNK (Thr183/Tyr185) level,TgCRND8 mice [8]; [14],no significant differences
same,phosphorylated Akt (p-Akt) level normalized to total Akt,TgCRND8 mice [8]; [14],significantly high
same,tau-1 immunoreactivity (dephosphorylated tau),TgCRND8 mice [8]; BBR-treated TgCRND8,significant increase
same,enhancement in phosphorylated GSK3α and β at Ser 21 and 9,TgCRND8 mice [8]; BBR-treated vs vehicle-treated TgCRND8,50%
same,decrease of phosphorylated tau at AT8 phosphoepitope,TgCRND8 mice [8]; [15],30%
same,decrease of phosphorylated tau at AT180 phosphoepitope,TgCRND8 mice [8]; [15],42%
same,decrease of phosphorylated tau at PHF-1 phosphoepitope,TgCRND8 mice [8]; [15],26%
same,total tau levels,TgCRND8 mice [8]; between the groups,No significant difference
same,decrease in the p-APP and p-CTFs,TgCRND8 mice [8]; high dose group vs vehicle,27-28%
same,decrease in the p-APP and p-CTFs,TgCRND8 mice [8]; low dose group vs vehicle,46-50%
same,IC50,Aβ1-42 fibril formation [9]; in vitro,23.5 µM
same,effective in vitro concentration (approximately 20 μM) relative to brain levels,Aβ1-42 fibril formation [9]; printed as 'times less than those found in the brain',23 times
same,inhibition of Aβ1-42 fibril formation,Aβ1-42 fibril formation [10],36.3%
